ChEMBL document CHEMBL3352309, “Three types of cytotoxic natural caged-scaffolds: pure enantiomers or partial racemates” (J Nat Prod, 2014)
Values after ≈ are worked out from the molar mass of the structure shown.

System: MCF7
Assay: Cytotoxicity against human MCF7 cells after 72 hrs by sulforhodamine B assay
Format: functional, cell-based
Conditions: MCF7, 72 h

Structure (SMILES)	IC50
CO[C@]12C=C3C(=O)c4c(O)cccc4O[C@@]34C[C@@H]1C(C)(C)O[C@]2(CC=C(C)C)C4=O (racemic)	> 5 µg/mL
CO[C@]12C=C3C(=O)c4c(O)cccc4O[C@@]34[C@@H](C1)C(C)(C)O[C@]4(CC=C(C)C)C2=O (racemic)	0.36 µg/mL (≈ 0.877 µM)
COC(=O)[C@@]1(CC=C(C)C)OC(C)(C)[C@@H]2CC(=O)C=C3C(=O)c4c(O)cccc4O[C@]321 (racemic)	> 5 µg/mL
CC[C@@]1(O)C(=O)OCc2c1cc1n(c2=O)Cc2cc3ccccc3nc2-1 [CAMPTOTHECIN]	< 0.024 µg/mL
